Results taken from article PMC4951033, “Elevation of the Yields of Very Long Chain Polyunsaturated Fatty Acids via Minimal Codon Optimization of Two Key Biosynthetic Enzymes” (PLoS ONE, 2016).

Molecular target: T1, PinD6 (PinDes6, delta-6 desaturase) (Phytophthora infestans, UniProt A0A833SQW7)
T1 construct: gene GN244_ATG16356

| Compound | GC of fatty acid methyl esters from fed yeast |
| --- | --- |
| CCCCC/C=C\C/C=C\CCCCCCCC(=O)O [LA] | WT-PinD6 can convert LA and ALA to GLA and SDA |
| CC/C=C\C/C=C\C/C=C\CCCCCCCC(=O)O [ALA, α-linolenic acid] | WT-PinD6 can convert LA and ALA to GLA and SDA |
